The text below walks through data of article PMC7287649, “Hypoxia-Activated Prodrug Derivatives of Carbonic Anhydrase Inhibitors in Benzenesulfonamide Series: Synthesis and Biological Evaluation” (Molecules, 2020).

Several values for one entry are separate records, joined by “and”; a condition that tells them apart may be missing. Equal entries are not always repeated. Where two headings read alike, the source gives them in different places. Some results are limits rather than exact numbers.

Series [1] has as its system HT29 cells. Briefly: alamarBlue cell viability assay, HT29. It is filed as cell-based, human. Particulars: for IC50: Homo sapiens, HT-29, 2 h exposure, 72 h regrowth. As to the method:
(§1) Human colorectal HCT116 and HT29 carcinoma cells were cultured in Dulbecco’s Modified Eagle Medium (DMEM, Lonza) supplemented with 10% fetal bovine serum and 1% PenStrep. Cells were exposed to anoxic conditions for 24 h in a hypoxic chamber (MACS VA500 microaerophilic workstation, Don Whitley Scientific, Bingley, UK) with an atmosphere consisting of ≤0.02% O2, 5% CO2 and residual N2. Normoxic cells were grown in regular incubators with 21% O2, 5% CO2 at 37 °C.
(§2) The cytotoxic efficacy of the bio-reducible derivatives was determined based on cell viability assays using alamarBlue® (Invitrogen). In short, HT29 and HCT116 were seeded in 96-well plates and allowed to attach overnight. On the following day, the plates were exposed to normoxia or anoxia and medium was replaced with pre-incubated normoxic or anoxic DMEM. Compounds were dissolved in DMSO (0.5%, Sigma-Aldrich) and final concentrations were made with pre-incubated anoxic or normoxic DMEM and added to the wells after 24 h of exposure. Cells were exposed to compounds for a total of 2 h, after which the medium was washed off and replaced with fresh medium. Cells were allowed to grow for an additional 72 h under normoxic conditions prior to measurement. Cells were incubated with alamarBlue® for 2 h during normoxic conditions, which corresponds with their metabolic function, a measure for cell viability. Fluorescence was measured using plate reader (FLUOstar Omega, BMG LABTECH, Ortenberg, Germany) using a fluorescence excitation wavelength of 540–580 nm.
(§3) GraphPad Prism (version 5.03, GraphPad Software, San Diego, CA, USA) was used for all statistical analyses. For the cytotoxic compounds, IC50 values were estimated with the curve of the log (inhibitor) vs. normalized response (Variable slope).
In general terms: Alamar Blue is a resazurin reagent that responds to reducing activity.

Series [2] relates to HCT116 cells. The series is described as follows: alamarBlue cell viability assay, HCT116. It is filed as cell-based, human. Particulars: for IC50: Homo sapiens, HCT-116, 2 h exposure, 72 h regrowth. The method, then: as §1, §2, §3
The target in series [3] is hCA I (Homo sapiens, UniProt P00915). Briefly: stopped flow CO2 hydrase assay, hCA I.
Description: (§7) An Sx.18Mv-R Applied Photophysics (Oxford, UK) stopped-flow instrument was used for assaying the CA catalyzed CO2 hydration activity. […] In particular, CO2 was bubbled in distilled deionized water for 30 min so that the water was saturated (the concentration at a specific temperature is known from literature). In addition, a CO2 assay kit (from Merck, Darmstadt, Germany) was used to measure the concentration in variously diluted solutions obtained from the saturated one (which was kept at the same temperature and a constant bubbling during the experiments). […] The uncatalyzed rates were determined in the same manner and subtracted from the total observed rates. Stock solutions of inhibitor (0.1 mM) were prepared in distilled deionized water and dilutions up to 0.01 nM were done thereafter with distilled deionized water. Inhibitor and enzyme solutions were pre-incubated together for 15 min–2 h (or longer, i.e., 4–6 h) at room temperature (at 4 °C for the incubation periods longer than 15 min) prior to assay, in order to allow for the formation of the EI complex. The inhibition constants were obtained by non-linear least-squares methods using PRISM 3 and the Cheng–Prusoff equation, as reported earlier [38, 39], and represent the mean from at least three different determinations. hCA I was purchased by Merck (Darmstadt, Germany) and used without further purification, whereas all the other hCA isoforms were recombinant ones obtained in-house as reported earlier [40].
The target of series [4] is hCA II (Homo sapiens, UniProt P00918). Briefly: stopped flow CO2 hydrase assay, hCA II.
Description: as §7
Series [5] has as its target hCA IX (Homo sapiens, UniProt Q16790). Briefly: stopped flow CO2 hydrase assay, hCA IX. To be noted: for Selectivity Ratio KI hCA II/KI hCA IX: hCA II over hCA IX.
Description: as §7
Series [6] can be described thus: zebrafish embryo lethality (LC50). To be noted: AB, zebrafish, in vivo, zebrafish embryos from 24 hpf, end of 5 days of exposure. It is filed as in vivo. As to the method: (§4) The hypoxia-activated prodrugs were screened for their toxicity using 24-h post-fertilization zebrafish embryos as described earlier. The compounds were either dissolved in Embryonic medium (5.0 mM NaCl, 0.17 mM KCl, 0.33 mM CaCl2, 0.33 mM MgSO4, and 0.1% w/v Methylene Blue (Sigma-Aldrich, Darmstadt, Germany) or in dimethyl sulfoxide (DMSO) (Sigma-Aldrich, St. Louis, MO, USA) to prepare 100 mM stock solutions. Before the start of each experiment, the series of dilutions were made from the above stock in the embryonic medium.
(§5) The wild-type adult zebrafish (AB strains) were maintained at 28.5 °C in an incubator [35]. In each breeding tank, about embryos 3–5 pairs of male and female fish were set up overnight for collecting the embryos. The following morning, 1–2-h post-fertilization (hpf) embryos were collected in a sieve and rinsed with embryonic medium and kept the collected embryos in an incubator at 28.5 °C overnight. The toxicity evaluation studies of the compounds were performed using the fish that were 24-hpf. All the zebrafish experiments were performed at the zebrafish core facility, Tampere University, Finland, and according to the protocol used in our laboratory.
(§6) The LC50 values for all the three prodrugs were determined using 24-hpf embryos using […] different concentrations for each compound. We used a minimum of 30 zebrafish larvae for each concentration of the compound [28, 30, 36, 42]. The 24-hpf larvae were exposed to different concentrations of the inhibitors that ranged from 20 μM to […]. A dose response curve (DRC) was calculated using the DRM (model fitting function) of the DRC R package. The control group constituted an equal number of larvae not treated with any compound and the larvae that were treated with 1% DMSO. Toxicological evaluation studies were performed in 24-well plates (Corning V R Costar V R cell culture plates). In each well, we placed 1–2 24-hpf embryos in 1 mL of embryonic medium containing a diluted inhibitor. For control groups, 1% DMSO diluted in either embryonic medium or embryonic medium with no chemical compound. A minimum of three sets of experiments were carried out for each prodrug. The mortality of the larvae was checked every 24 h until 5 days after exposure to the prodrugs.

Series [7] has as its system zebrafish embryos. The series is described as follows: zebrafish embryo lethality (LC50). To be noted: 500 μM. In kind it is in vivo. The method, then:
as §4, §5, §6

Series [8] concerns zebrafish larvae. The series is described as follows: phenotypic analysis of zebrafish larvae. It is filed as in vivo. To be noted: for adverse effects on observable phenotypic parameters of the larvae: 20 μM–2 mM, 5 days post exposure; for phenotypic defects: zebrafish larvae, at lower concentrations compared to 1b. The method, then:
as §4, §5
After exposure to the prodrugs, we evaluated the effects of these compound on the zebrafish larvae by analyzing the following eight phenotypic parameters: (1) mortality, (2) hatching (3) edema (4) swimming pattern, (5) yolk sack utilization, (6) heartbeat, (7) body shape, and (8) swim bladder development. The images of the developing larvae were taken using a Lumar V1.12 fluorescence microscope (Carl Zeiss MicroImaging GmbH, Göttingen, Germany) attached to a camera with a 1.5 lens (Carl Zeiss MicroImaging GmbH, Göttingen, Germany). The images were analyzed with AxioVision software versions 4.7 and 4.8 as described in our standard protocol for the assessment of the toxicity and safety of chemical compounds.

The subject of series [9] is zebrafish larvae. Particulars: 100 μM; cited from earlier work.
[10] abbreviates: HT29, normoxia, read-out: IC50N.
[11] abbreviates: HCT116, anoxia, read-out: IC50A.
Where [12] appears, read: HCT116, normoxia, read-out: IC50N.
Setting [13] is: KI hCA I, mean from 3 different assays.

hCA I, sequence (P00915 whole entry): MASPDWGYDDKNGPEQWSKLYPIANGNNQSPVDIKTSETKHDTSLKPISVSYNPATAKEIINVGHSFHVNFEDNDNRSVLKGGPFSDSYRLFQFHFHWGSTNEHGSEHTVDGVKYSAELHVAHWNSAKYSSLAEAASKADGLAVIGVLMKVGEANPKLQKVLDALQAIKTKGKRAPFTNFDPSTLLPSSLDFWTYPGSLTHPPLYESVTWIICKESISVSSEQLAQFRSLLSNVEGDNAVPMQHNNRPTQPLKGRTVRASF

One may read the Ki as a dissociation constant, usually derived from enzyme kinetics or from competition with a known ligand. Turning to `Cc1ncc([N+](=O)[O-])n1CCOC(=O)NCCc1ccc(S(N)(=O)=O)cc1` [Compound 2b, 2-(2-methyl-5-nitro-1H-imidazol-1-yl) ethyl (4-sulfamoylphenethyl) carbamate], the IC50 in [1] (HT29, anoxia, read-out: IC50A) is more than 500000 nM; in series [1] (setting [10]), more than 500000 nM; in series [2] (setting [11]), more than 500000 nM; in series [2] (setting [12]), more than 500000 nM. Further, the Ki in [3] (setting [13]) was 3.7 nM; in series [4], 4.3 nM; in series [5] it was 12.1 nM. The “Selectivity Ratio KI hCA II/KI hCA IX” value in [5] is 0.35.

In the case of `Cc1ncc([N+](=O)[O-])n1CCOC(=O)NCc1ccc(S(N)(=O)=O)cc1` [Compound 2c, 2-(2-methyl-5-nitro-1H-imidazol-1-yl) ethyl (4-sulfamoylbenzyl) carbamate], the IC50 in [1] (HT29, anoxia, read-out: IC50A) is more than 500000 nM; in series [1] (setting [10]), more than 500000 nM; in series [2] (setting [11]), more than 500000 nM; in series [2] (setting [12]), more than 500000 nM. Further, the Ki in series [3] (setting [13]) worked out at 2.3 nM; in series [4], 4 nM; in [5], 14.1 nM. Also, in series [5], the “Selectivity Ratio KI hCA II/KI hCA IX” value was found to be 0.28.

In the case of `NS(=O)(=O)c1ccc(CCNC(=O)OCCNC(=O)c2cc([N+](=O)[O-])ccc2N(CCCl)CCCl)cc1` [Compound 3b, 2-(2-(bis(2-chloroethyl)amino)-5-nitrobenzamido) ethyl (4-sulfamoylphenethyl) carbamate], the cytotoxicity entry in [1] (HT29, normoxia and anoxia, tested concentrations) is “no cytotoxicity”. Moreover, the IC50 was more than 500000 nM in series [1] (HT29, anoxia, read-out: IC50A); more than 500000 nM in series [1] (setting [10]); 97300 nM in series [2] (setting [11]); 267000 nM in series [2] (setting [12]). Further, the “HCR (IC50N/IC50A)” value in series [2] (HCT116, hypoxia selectivity cytotoxicity ratio) was 2.7 and 2.74. Further, the figures for the Ki in [3] (setting [13]), in series [4] and in series [5] were 83 nM, 3.1 nM and 32.3 nM, respectively. Also, in series [5], the “Selectivity Ratio KI hCA II/KI hCA IX” value turned out to be 0.09.

`NS(=O)(=O)c1ccc(CNC(=O)OCCNC(=O)c2cc([N+](=O)[O-])ccc2N(CCCl)CCCl)cc1` [Compound 3c, 2-(2-(bis(2-chloroethyl)amino)-5-nitrobenzamido) ethyl (4-sulfamoylbenzyl)carbamate]: the IC50 is more than 500000 nM in [1] (HT29, anoxia, read-out: IC50A); more than 500000 nM in series [1] (setting [10]); more than 500000 nM in [2] (setting [11]); more than 500000 nM in series [2] (setting [12]). For the same molecule, the Ki in [3] (setting [13]) worked out at 2180 nM; in series [4], 83.7 nM; in series [5], 88.7 nM. The “Selectivity Ratio KI hCA II/KI hCA IX” value in [5] worked out at 0.94.

As usually defined, the LC50 is the concentration lethal to half of the exposed cells or organisms. Read a high LC50 as a less lethal substance. In [6], `NS(=O)(=O)c1ccc(CCNC(=O)OCc2ccc([N+](=O)[O-])o2)cc1` [Compound 4b, (5-nitrofuran-2-yl)methyl (4-sulfamoylphenethyl) carbamate] gave an LC50 of approximately 500000 nM. The “mortality of the larvae” value in series [7] is “significant mortality”. Moreover, in [8], the “adverse effects on observable phenotypic parameters of the larvae” value was “adverse effect on hatching, swim bladder development, the utilization of the yolk sac, and the shape of the body and induced pericardial edema”; the phenotypic defects entry was “phenotypic defects, such as edema and the absence of a swim bladder”. For the same molecule, the swim bladder development result in series [8] (250 μM, at 5 days) is “absence of a swim bladder”. In series [3] (setting [13]), the Ki was 84 nM and 83.8 nM. In addition, the Ki in series [4] came to 15.5 nM. Moreover, in [5], the Ki was 5.7 nM and the “Selectivity Ratio KI hCA II/KI hCA IX” value was 2.72.

On to `Cc1ncc([N+](=O)[O-])n1CCNS(N)(=O)=O` [DTP348], for which, in [9], the neurotoxic effect result was “induced a neurotoxic effect” and the swim pattern result is given as “ataxic movement pattern”.

Consider “(5-nitrothiophen-2-yl)methyl(4-sulfamoylphenethyl)carbamate [Compound 5b]”, for which the “adverse effects on observable phenotypic parameters of the larvae” value in series [8] is “adverse effect on hatching, swim bladder development, the utilization of the yolk sac, and the shape of the body and induced pericardial edema”. For the same molecule, the edema entry in series [8] (as early as 2 days post exposure) is reported as “induced edema”. For the same molecule, the phenotypic defects entry in series [8] was “phenotypic defects, such as edema and the absence of a swim bladder”. The Ki stood at 64.7 nM in series [3] (read-out: KI hCA I, mean from 3 different assays); 19.8 nM in series [4] (read-out: KI hCA II, stopped flow CO2 hydrase assay, mean from 3 different assays); 15.1 nM in [5] (read-out: KI hCA IX, stopped flow CO2 hydrase assay, mean from 3 different assays). Besides, in series [5], the “Selectivity Ratio KI hCA II/KI hCA IX” value is 1.31.
